{"source": "patent US20190203253A1", "about": "“METHODS OF IDENTIFYING AND TREATING CANCER PATIENTS WITH AN EPHB6 DEFICIENCY” (University of Saskatchewan, priority 2016, published 2019)", "key": {"[1]": {"tested_on": "MDA-pc3 and MDA-B6 cells (MDA-MB-231)", "test": "Drug sensitivity assay (resazurin), SRC inhibitors, MDA-MB-231-derived cells", "type": "cell-based, human", "conditions": "MDA-pc3 vs MDA-B6, increasing concentrations, 72 h, resazurin (FIG. 4A, 4B)", "procedure": "FIG. 4. […] C. […] All experiments were performed at least three times."}, "[2]": {"tested_on": "MDA-pc3 and MDA-B6 TNBC tumors", "test": "Tumor xenograft study, tumor growth", "type": "in vivo, NOD-SCID mice", "conditions": "5 mg/kg orally twice a day, MDA-pc3 vs MDA-B6 xenografts (FIG. 7A)", "procedure": "FIG. 7. Analysis of the SL interaction between EPHB6 and SRC in TNBC cells and murine xenografts. A. MDA-pc3 and MDA-B6 cells were injected into the mammary fat pad region of 4-6 weeks old NOD-SCID mice (1×10^6 cells per mouse). Mice with detectable tumors were treated twice per day with 5 mg/kg KX2-391 in DMSO/water solvent or solvent alone by oral feeding (at least 6 animals per each experimental condition). Tumor size was measured every 3 days and tumor volume was calculated with the equation: A/2*B^2, where A was long and B was short diameter of the tumor. The reduction in tumor growth in KX2-391-treated mice is presented as a percentage relative to matching solvent controls. The graph summarizes two independent experiments. […] Four representative fields (at 3, 6, 9, and 12 o'clock) per each stained tumor section (one for each extracted tumor) were imaged at 100× magnification and the blood vessel density per each field was analyzed with the Image-Pro Premier software. […]\nBreeder pairs of NOD SCID gamma mice were purchased from The Jackson Laboratory and a colony was established at the Laboratory Animal Services Unit, University of Saskatchewan. […] Digital caliper measurements were taken every 3 days and tumor volume was calculated by the formula A/2*B^2 (where A and B were the long and short diameters of the tumor respectively). […]"}, "[3]": {"tested_on": "co-cultured MDA-B6 and MDA-pc3 cells", "test": "Drug sensitivity assay with fluorescent co-cultured cells (flow cytometry), KX2-391", "type": "cell-based, human", "conditions": "GFP/RFP-labelled MDA-B6 and MDA-pc3 co-seeded in equal numbers, 25 nM, 72 h (FIGS. 4D, 4E)", "procedure": "FIG. 4. SL interaction between EPHB6 and SRC. A. MDA-pc3 and MDA-B6 cells were cultured in 96-well plates with the indicated concentrations of SU6656 or matching volumes of DMSO for 72 h. Cells were stained with resazurin and fluorescence was measured using a SpectraMax M5 plate reader to determine cell suppression. Five wells were analyzed per condition. […] B. MDA-pc3 and MDA-B6 cells were cultured in 96-well plates with the indicated concentrations of KX2-391 or matching volumes of DMSO for 72 h. Cells were stained with resazurin and fluorescence was measured using a SpectraMax M5 plate reader to determine cell suppression. Five wells were analyzed per condition. […] C. MDA-B6 and MDA-pc3 cells were transduced with lentivirus encoding pLD-GFP-Puro or pLD-RFP-Puro as indicated. Cells were selected with 2 μg/mL puromycin for 48 h, cultured in monolayer, and imaged by confocal microscopy at 100× magnification. […] Cells were collected and analyzed by flow cytometry and the FlowJo software. […] Cells were collected and analyzed by flow cytometry and the FlowJo software. […]\nFor color assays, MDA-B6-GFP and MDA-pc3-RFP, or MDA-B6-RFP and MDA-pc3-GFP cells were co-seeded in equal numbers in 12-well plates at indicated cell densities. […] Treated cells were collected and quantitated by flow cytometry. Results were analyzed using the FlowJo software (FLOWJO LLC, Ashland, Oreg., USA)."}}, "note": "Entries after “also recorded” stand apart in the source; their conditions may differ.", "data": [{"smiles": "O=C(Cc1ccc(-c2ccc(OCCN3CCOCC3)cc2)cn1)NCc1ccccc1", "note": "[KX2-391]", "values": [{"measurement": "cell suppression relative to DMSO control, EPHB6-deficient vs EPHB6-expressing cells", "setting": "[1]", "result": "significantly stronger suppression of EPHB6-deficent cells"}, {"measurement": "suppression of tumor growth, EPHB6-deficient vs EPHB6-expressing tumors", "setting": "[2]", "result": "more efficiently suppresses growth of EPHB6-deficient TNBC tumors; also recorded: significantly more effective in suppressing EPHB6-deficient TNBC tumors"}, {"measurement": "cell suppression in co-culture monitored by flow cytometry", "setting": "[3]", "result": "EPHB6-deficient cells are much less resistant to SRC inhibition"}]}]}
